PubChem BioAssay AID248 (DTP/NCI, 2004)
Where “and” joins values, the source holds several entries; their conditions need not be identical. Equal entries are not always repeated. Toxic doses and inconclusive results are not listed.

Tested on: L1210 leukemia ip in BDF1 mice, survival T/C
Test: NCI In Vivo Anticancer Drug Screen. Data for tumor model L1210 Leukemia (intraperitoneal) in B6D2F1 (BDF1) mice
Settings: endpoint: mean survival time, higher = longer survival
How it was run: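 Read-out is survival time, reported as the treated-group measurement over the vehicle-control measurement.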

[1] = dose: 6.25 mg/kg/injection, schedule: Q01DX009 (ip), vehicle: saline with Tween-80
[2] = dose: 6.25 mg/kg/injection, schedule: Q04DX003 (ip), vehicle: saline with Tween-80
[3] = dose: 12.5 mg/kg/injection, schedule: Q04DX002 (ip), vehicle: saline with Tween-80
[4] = dose: 12.5 mg/kg/injection, schedule: Q04DX003 (ip), vehicle: saline with Tween-80
[5] = dose: 100.0 mg/kg/injection, schedule: Q01DX009 (ip), vehicle: saline
[6] = dose: 100.0 mg/kg/injection, schedule: Q04DX003 (ip), vehicle: saline
[7] = dose: 200.0 mg/kg/injection, schedule: Q01DX009 (ip), vehicle: saline
[8] = dose: 200.0 mg/kg/injection, schedule: Q04DX003 (ip), vehicle: saline
[9] = dose: 400.0 mg/kg/injection, schedule: Q01DX009 (ip), vehicle: saline
[10] = dose: 400.0 mg/kg/injection, schedule: Q04DX003 (ip), vehicle: saline
[11] = dose: 100.0 mg/kg/injection, schedule: Q01DX001 (ip), vehicle: carboxymethylcellulose (CMC)
[12] = dose: 200.0 mg/kg/injection, schedule: Q01DX001 (ip), vehicle: carboxymethylcellulose (CMC)
[13] = dose: 400.0 mg/kg/injection, schedule: Q01DX001 (ip), vehicle: carboxymethylcellulose (CMC)
[14] = dose: 100.0 mg/kg/injection, schedule: Q01DX009 (ip), vehicle: Klucel (hydroxypropylcellulose) (HPC)
[15] = dose: 200.0 mg/kg/injection, schedule: Q01DX009 (ip), vehicle: Klucel (hydroxypropylcellulose) (HPC)
[16] = dose: 400.0 mg/kg/injection, schedule: Q01DX009 (ip), vehicle: Klucel (hydroxypropylcellulose) (HPC)
[17] = dose: 100.0 mg/kg/injection, schedule: Q04DX003 (ip), vehicle: Klucel (hydroxypropylcellulose) (HPC)
[18] = dose: 200.0 mg/kg/injection, schedule: Q04DX003 (ip), vehicle: Klucel (hydroxypropylcellulose) (HPC)
[19] = dose: 400.0 mg/kg/injection, schedule: Q04DX003 (ip), vehicle: Klucel (hydroxypropylcellulose) (HPC)

CCC[As](=O)(O)Cc1ccccc1C
T/C (dose: 0.78 mg/kg/injection, schedule: Q01DX009 (ip), vehicle: saline with Tween-80): 95 % of control | T/C (dose: 1.56 mg/kg/injection, schedule: Q01DX009 (ip), vehicle: saline with Tween-80): 97 % of control | T/C (dose: 1.56 mg/kg/injection, schedule: Q04DX003 (ip), vehicle: saline with Tween-80): 93 % of control | T/C (dose: 3.12 mg/kg/injection, schedule: Q01DX009 (ip), vehicle: saline with Tween-80): 97 % of control | T/C (dose: 3.12 mg/kg/injection, schedule: Q04DX002 (ip), vehicle: saline with Tween-80): 103 % of control | T/C (dose: 3.12 mg/kg/injection, schedule: Q04DX003 (ip), vehicle: saline with Tween-80): 97 % of control | T/C (dose: 6.25 mg/kg/injection, schedule: Q01DX001 (ip), vehicle: saline with Tween-80): 106 % of control | T/C [1]: 101 % of control and 103 % of control | T/C [2]: 95 % of control | T/C (dose: 12.5 mg/kg/injection, schedule: Q01DX001 (ip), vehicle: saline with Tween-80): 109 % of control | T/C [3]: 90 % of control | T/C [4]: 103 % of control

CCOCCc1ccccn1
T/C [5]: 113 % of control | T/C [6]: 103 % of control | T/C [7]: 100 % of control | T/C [8]: 103 % of control | T/C [9]: 96 % of control | T/C [10]: 101 % of control

COC1=C(N=[N+]=[N-])C(=O)c2ccccc2C1=O
T/C (dose: 6.25 mg/kg/injection, schedule: Q04DX002 (ip), vehicle: saline with Tween-80): 104 % of control | T/C [3]: 96 % of control

O=[N+]([O-])c1ccc(OCc2ccc(COc3ccc(S(=O)(=O)F)cc3)cc2)c(Cl)c1
T/C (dose: 100.0 mg/kg/injection, schedule: Q01DX001 (ip), vehicle: saline with Tween-80): 90 % of control | T/C (dose: 200.0 mg/kg/injection, schedule: Q01DX001 (ip), vehicle: saline with Tween-80): 102 % of control | T/C (dose: 400.0 mg/kg/injection, schedule: Q01DX001 (ip), vehicle: saline with Tween-80): 96 % of control

CC(C)(O)CC1=C(O)c2ccccc2C(=O)C1=O
T/C (dose: 50.0 mg/kg/injection, schedule: Q01DX001 (ip), vehicle: carboxymethylcellulose (CMC)): 105 % of control | T/C [11]: 97 % of control | T/C [12]: 105 % of control | T/C [13]: 105 % of control

C[n+]1cccc(C=O)c1
T/C [5]: 100 % of control | T/C [7]: 101 % of control | T/C [9]: 100 % of control

C=C(Br)CNC(=O)Nc1cccc2c1CCCC2
T/C (dose: 100.0 mg/kg/injection, schedule: Q01DX009 (ip), vehicle: saline with Tween-80): 94 % of control | T/C (dose: 100.0 mg/kg/injection, schedule: Q04DX003 (ip), vehicle: saline with Tween-80): 86 % of control | T/C (dose: 200.0 mg/kg/injection, schedule: Q01DX009 (ip), vehicle: saline with Tween-80): 97 % of control | T/C (dose: 200.0 mg/kg/injection, schedule: Q04DX003 (ip), vehicle: saline with Tween-80): 86 % of control | T/C (dose: 400.0 mg/kg/injection, schedule: Q01DX009 (ip), vehicle: saline with Tween-80): 92 % of control | T/C (dose: 400.0 mg/kg/injection, schedule: Q04DX003 (ip), vehicle: saline with Tween-80): 88 % of control

O=C1C=C(c2ccccc2)C(c2ccccc2)C1O (stereo unspecified)
T/C (dose: 75.0 mg/kg/injection, schedule: Q01DX001 (ip), vehicle: other): 102 % of control | T/C (dose: 150.0 mg/kg/injection, schedule: Q01DX001 (ip), vehicle: other): 97 % of control

O=[N+]([O-])c1ccc(N/N=C/CCl)c([N+](=O)[O-])c1
T/C [1]: 94 % of control and 98 % of control | T/C [2]: 99 % of control | T/C (dose: 12.5 mg/kg/injection, schedule: Q01DX009 (ip), vehicle: saline with Tween-80): 102 % of control and 105 % of control | T/C [4]: 87 % of control | T/C (dose: 25.0 mg/kg/injection, schedule: Q01DX009 (ip), vehicle: saline with Tween-80): 98 % of control and 103 % of control | T/C (dose: 25.0 mg/kg/injection, schedule: Q04DX003 (ip), vehicle: saline with Tween-80): 91 % of control

O=NN(CCCl)C(=O)Nc1ccc(C(=O)O)cc1
T/C (dose: 1.5 mg/kg/injection, schedule: Q01DX Z (ip), vehicle: saline): 171 % of control | T/C (dose: 2.0 mg/kg/injection, schedule: Q01DX Z (ip), vehicle: saline): 162 % of control | T/C (dose: 2.5 mg/kg/injection, schedule: Q01DX001 (ip), vehicle: carboxymethylcellulose (CMC)): 118 % of control and 124 % of control | T/C (dose: 3.75 mg/kg/injection, schedule: Q## X001 (ip), vehicle: carboxymethylcellulose (CMC)): 106 % of control | T/C (dose: 4.5 mg/kg/injection, schedule: Q01DX Z (ip), vehicle: carboxymethylcellulose (CMC)): 151 % of control | T/C (dose: 5.0 mg/kg/injection, schedule: Q01DX001 (ip), vehicle: carboxymethylcellulose (CMC)): 153 % of control and 182 % of control | T/C (dose: 9.0 mg/kg/injection, schedule: Q01DX Z (ip), vehicle: carboxymethylcellulose (CMC)): 117 % of control | T/C (dose: 15.0 mg/kg/injection, schedule: Q01DX001 (ip), vehicle: carboxymethylcellulose (CMC)): 151 % of control and 168 % of control and 190 % of control | T/C (dose: 15.0 mg/kg/injection, schedule: Q## X001 (ip), vehicle: carboxymethylcellulose (CMC)): 152 % of control | T/C (dose: 20.0 mg/kg/injection, schedule: Q01DX001 (ip), vehicle: carboxymethylcellulose (CMC)): 152 % of control | T/C (dose: 30.0 mg/kg/injection, schedule: Q01DX001 (ip), vehicle: carboxymethylcellulose (CMC)): 218 % of control and 227 % of control | T/C (dose: 30.0 mg/kg/injection, schedule: Q## X001 (ip), vehicle: carboxymethylcellulose (CMC)): 191 % of control

O=C(c1ccccc1)N1CCC(CCO)C(O)C1Cc1c[nH]c2ccccc12 (stereo unspecified)
T/C [5]: 96 % of control | T/C [6]: 100 % of control | T/C [7]: 93 % of control | T/C [8]: 94 % of control | T/C [9]: 98 % of control | T/C [10]: 92 % of control

Nc1nc(SCc2ccccc2)c2ncn(C3CCCC3)c2n1
T/C [11]: 95 % of control | T/C [12]: 95 % of control | T/C [13]: 92 % of control | T/C (dose: 700.0 mg/kg/injection, schedule: Q01DX015 (ip), vehicle: carboxymethylcellulose (CMC)): 101 % of control | T/C (dose: 800.0 mg/kg/injection, schedule: Q01DX015 (ip), vehicle: carboxymethylcellulose (CMC)): 101 % of control

O=C(O)c1c(Br)c(Br)c(Br)c(Br)c1C(=O)Nc1cccc2c(O)cccc12
T/C [14]: 110 % of control | T/C [15]: 107 % of control | T/C [16]: 96 % of control

O=C1c2cccnc2C(=O)N1Cc1ccccc1
T/C (dose: 100.0 mg/kg/injection, schedule: Q01DX009 (ip), vehicle: saline sonified): 103 % of control | T/C [17]: 107 % of control | T/C (dose: 200.0 mg/kg/injection, schedule: Q01DX009 (ip), vehicle: saline sonified): 96 % of control | T/C [18]: 103 % of control | T/C (dose: 400.0 mg/kg/injection, schedule: Q01DX009 (ip), vehicle: saline sonified): 102 % of control | T/C [19]: 102 % of control

CCCCSP(=S)(Cc1ccccc1)SCCCC
T/C [17]: 95 % of control | T/C [18]: 93 % of control

Cc1cc2nc(/C(C#N)=C/c3cc(Cl)cc(Cl)c3O)[nH]c2cc1C
T/C (dose: 100.0 mg/kg/injection, schedule: Q01DX009 (ip), vehicle: other): 93 % of control | T/C (dose: 200.0 mg/kg/injection, schedule: Q01DX009 (ip), vehicle: other): 104 % of control | T/C (dose: 400.0 mg/kg/injection, schedule: Q01DX009 (ip), vehicle: other): 93 % of control

COC(=O)/C=C/NC(=O)c1ccccc1C(=O)OC
T/C [14]: 98 % of control | T/C [17]: 94 % of control | T/C [15]: 96 % of control | T/C [18]: 103 % of control | T/C [16]: 109 % of control | T/C [19]: 100 % of control

COc1cc(/C=N/NC(=O)N/N=C/c2cc(OC)c(OC)c(OC)c2)cc(OC)c1OC
T/C [17]: 105 % of control | T/C [18]: 105 % of control | T/C [19]: 108 % of control

O=C(O)c1cc(O)c(O)cc1O
T/C [11]: 98 % of control | T/C [12]: 108 % of control | T/C [13]: 92 % of control

COC(=O)c1cccc2c1-c1ccccc1C2=O
T/C (dose: 100.0 mg/kg/injection, schedule: Q01DX001 (ip), vehicle: other): 92 % of control | T/C (dose: 200.0 mg/kg/injection, schedule: Q01DX001 (ip), vehicle: other): 88 % of control | T/C (dose: 400.0 mg/kg/injection, schedule: Q01DX001 (ip), vehicle: other): 97 % of control
